Test results from US6518243B1, “Desleucyl glycopeptide antibiotics and methods of making same” (Trustees of Princeton University, priority 1999, dated 2003).

Legend:
E. faecium ATCC 49624 = experiment: MIC determination in BHI media, OD600; assay type: cell-based; conditions: BHI + 0.1% casamino acids, 18 hours at 37° C., ≧90% OD600 inhibition
Experimental: (§1) Logarithmically growing cells were diluted to approximately 5×10^5 CFU/ml and subjected to test compounds solubilized and serially diluted in DMSO. […] After 18 hours at 37° C., the OD600 was determined by reading the ninety-six well microtiter plates on a microplate reader. For a given concentration, an MIC determination was made if: […]

S aureus ATCC 29213 = experiment: MIC determination in BHI media, OD600; assay type: cell-based; conditions: BHI + 0.1% casamino acids, 18 hours at 37° C., ≧90% OD600 inhibition
Experimental: as §1

S. Aureus ATCC 33591 = experiment: MIC determination in BHI media, OD600; assay type: cell-based; conditions: BHI + 0.1% casamino acids, 18 hours at 37° C., ≧90% OD600 inhibition
Experimental: as §1

E. faceium (ATCC 49624) = experiment: Zone of inhibition screen, 96 well agar array format;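 also: score 3 means fourfold and score 4 sixteenfold the reference zone size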; assay type: cell-based, E. faecium; conditions: zone of inhibition relative to 1 mg/ml stock solution of p-chlorobiphenylvancomycin
Experimental: The antibacterial activity of each of the compounds against the bacterial strains E. faceium (ATCC 49624), S. epidermidis (ATCC 12228), S. aureus (ATCC 29213), E. faecalis (CL 4877) and E. faecalis (ATCC 292121) was tested. Each of the compounds was screened in a 96 will agar array format.

[1] = tested on: S. epidermidis (ATCC 12228); experiment: as above; assay type: cell-based; parameters: scale not given here
Method in brief: (§2)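 Read-out is antibacterial activity on agar laid out as a 96-well array; every compound went through all strains of the panel.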

S. aureus (ATCC 29213) = experiment: as above; assay type: cell-based; parameters: scale not given here
Method in brief: as §2

E. faecium CL 4931 = experiment: MIC determination in BHI media, OD600; assay type: cell-based; conditions: BHI + 0.1% casamino acids, 18 hours at 37° C., ≧90% OD600 inhibition
Experimental: as §1

E. faecalis (CL 4877) = experiment: Zone of inhibition screen, 96 well agar array format; assay type: cell-based; parameters: scale not given here
Method in brief: as §2

[2] = zone of inhibition relative to 1 mg/ml stock solution of p-chlorobiphenylvancomycin
[3] = zone of inhibition relative to 1 mg/ml p-chlorobiphenylvancomycin

MIC E. faecium ATCC 49624 (E. faecium ATCC 49624) | MIC S. aureus ATCC 29213 (S aureus ATCC 29213) | MIC S. aureus ATCC 33591 (S. Aureus ATCC 33591) | MIC E. faecium CL 4931 (E. faecium CL 4931) | SMILES | zone score, S. aureus ATCC 29213 (S. aureus (ATCC 29213); [2]) | also measured
0.39 µg/mL | 0.78 µg/mL | 0.78 µg/mL | – | CC1OC(OC2C(Oc3c4cc5cc3Oc3ccc(cc3Cl)C(O)C3NC(=O)C(NC(=O)C5NC(=O)C(CC(N)=O)NC(=O)C(NC(=O)CNC(=O)CN)C(O)c5ccc(c(Cl)c5)O4)c4ccc(O)c(c4)-c4c(O)cc(O)cc4C(C(=O)O)NC3=O)OC(CO)C(O)C2O)CC(C)(NCc2ccc(-c3ccc(Cl)cc3)cc2)C1O (centres unmarked) [Compound 68] | – | zone score, E. faecium ATCC 49624 (E. faceium (ATCC 49624)): 2
0.39 µg/mL | – | – | > 25 µg/mL | CC1OC(OC2C(Oc3c4cc5cc3Oc3ccc(cc3Cl)C(O)C3NC(=O)C(NC(=O)C5NC(=O)C(CC(N)=O)NC(=O)C(NC(=O)C(CC(N)=O)NC(=O)OC(C)(C)C)C(O)c5ccc(c(Cl)c5)O4)c4ccc(O)c(c4)-c4c(O)cc(O)cc4C(C(=O)O)NC3=O)OC(CO)C(O)C2O)CC(C)(NCc2ccc(-c3ccc(Cl)cc3)cc2)C1O (centres unmarked) [Compound 135] | 2 | zone score, S. epidermidis ATCC 12228 [1, 2]: 2
0.78 µg/mL | – | – | 25 µg/mL | CC(OC(C)(C)C)C(N)C(=O)NC1C(=O)NC(CC(N)=O)C(=O)NC2C(=O)NC3C(=O)NC(C(=O)NC(C(=O)O)c4cc(O)cc(O)c4-c4cc3ccc4O)C(O)c3ccc(c(Cl)c3)Oc3cc2cc(c3OC2OC(CO)C(O)C(O)C2OC2CC(C)(NCc3ccc(-c4ccc(Cl)cc4)cc3)C(O)C(C)O2)Oc2ccc(cc2Cl)C1O (centres unmarked) [Compound 344] | – | –
0.78 µg/mL | 0.78 µg/mL | 0.78 µg/mL | – | CC(C)CC(N)C(=O)NC1C(=O)NC(CC(N)=O)C(=O)NC2C(=O)NC3C(=O)NC(C(=O)NC(C(=O)O)c4cc(O)cc(O)c4-c4cc3ccc4O)C(O)c3ccc(c(Cl)c3)Oc3cc2cc(c3OC2OC(CO)C(O)C(O)C2OC2CC(C)(NCc3ccc(-c4ccc(Cl)cc4)cc3)C(O)C(C)O2)Oc2ccc(cc2Cl)C1O (centres unmarked) [Compound 38] | 2 | zone score, E. faecium ATCC 49624 (E. faceium (ATCC 49624)): 2
– | – | – | 25 µg/mL | CC1OC(OC2C(Oc3c4cc5cc3Oc3ccc(cc3Cl)C(O)C3NC(=O)C(NC(=O)C5NC(=O)C(CC(N)=O)NC(=O)C(NC(=O)C(N)CSCc5ccccc5)C(O)c5ccc(c(Cl)c5)O4)c4ccc(O)c(c4)-c4c(O)cc(O)cc4C(C(=O)O)NC3=O)OC(CO)C(O)C2O)CC(C)(NCc2ccc(-c3ccc(Cl)cc3)cc2)C1O (centres unmarked) [Compound 332] | – | –
0.39 µg/mL | – | 0.78 µg/mL | 25 µg/mL | CNC(COC(C)(C)C)C(=O)NC1C(=O)NC(CC(N)=O)C(=O)NC2C(=O)NC3C(=O)NC(C(=O)NC(C(=O)O)c4cc(O)cc(O)c4-c4cc3ccc4O)C(O)c3ccc(c(Cl)c3)Oc3cc2cc(c3OC2OC(CO)C(O)C(O)C2OC2CC(C)(NCc3ccc(-c4ccc(Cl)cc4)cc3)C(O)C(C)O2)Oc2ccc(cc2Cl)C1O (centres unmarked) [Compound 343] | – | –
0.25 µg/mL | 0.39 µg/mL | 0.39 µg/mL | 25 µg/mL | CCOCC(NC)C(=O)NC1C(=O)NC(CC(N)=O)C(=O)NC2C(=O)NC3C(=O)NC(C(=O)NC(C(=O)O)c4cc(O)cc(O)c4-c4cc3ccc4O)C(O)c3ccc(c(Cl)c3)Oc3cc2cc(c3OC2OC(CO)C(O)C(O)C2OC2CC(C)(NCc3ccc(-c4ccc(Cl)cc4)cc3)C(O)C(C)O2)Oc2ccc(cc2Cl)C1O (centres unmarked) [Compound 527] | – | –
0.39 µg/mL | 0.78 µg/mL | 0.78 µg/mL | 25 µg/mL | CC1OC(OC2C(Oc3c4cc5cc3Oc3ccc(cc3Cl)C(O)C3NC(=O)C(NC(=O)C5NC(=O)C(CC(N)=O)NC(=O)C(NC(=O)C(N)CSSC(C)(C)C)C(O)c5ccc(c(Cl)c5)O4)c4ccc(O)c(c4)-c4c(O)cc(O)cc4C(C(=O)O)NC3=O)OC(CO)C(O)C2O)CC(C)(NCc2ccc(-c3ccc(Cl)cc3)cc2)C1O (centres unmarked) [Compound 345] | – | –
– | – | – | – | CC1OC(OC2C(Oc3c4cc5cc3Oc3ccc(cc3Cl)C(O)C3NC(=O)C(NC(=O)C5NC(=O)C(CC(N)=O)NC(=O)C(NC(=O)CNC(=O)C5CCCN5)C(O)c5ccc(c(Cl)c5)O4)c4ccc(O)c(c4)-c4c(O)cc(O)cc4C(C(=O)O)NC3=O)OC(CO)C(O)C2O)CC(C)(NCc2ccc(-c3ccc(Cl)cc3)cc2)C1O (centres unmarked) [Compound 85] | 2 | zone score, E. faecalis CL 4877 (E. faecalis (CL 4877); [2]): 2; zone score, S. epidermidis ATCC 12228 [1, 2]: 2; zone score, E. faecium ATCC 49624 (E. faceium (ATCC 49624)): 2
– | – | – | 25 µg/mL | COCC(=O)NC1C(=O)NC(CC(N)=O)C(=O)NC2C(=O)NC3C(=O)NC(C(=O)NC(C(=O)O)c4cc(O)cc(O)c4-c4cc3ccc4O)C(O)c3ccc(c(Cl)c3)Oc3cc2cc(c3OC2OC(CO)C(O)C(O)C2OC2CC(C)(NCc3ccc(-c4ccc(Cl)cc4)cc3)C(O)C(C)O2)Oc2ccc(cc2Cl)C1O (centres unmarked) [Compound 303] | – | zone score, S. epidermidis ATCC 12228 [1, 3]: 2
0.78 µg/mL | 0.78 µg/mL | 0.78 µg/mL | 25 µg/mL | CC1OC(OC2C(Oc3c4cc5cc3Oc3ccc(cc3Cl)C(O)C3NC(=O)C(NC(=O)C5NC(=O)C(CC(N)=O)NC(=O)C(NC(=O)C(N)CO)C(O)c5ccc(c(Cl)c5)O4)c4ccc(O)c(c4)-c4c(O)cc(O)cc4C(C(=O)O)NC3=O)OC(CO)C(O)C2O)CC(C)(NCc2ccc(-c3ccc(Cl)cc3)cc2)C1O (centres unmarked) [Compound 63] | 2 | zone score, E. faecalis CL 4877 (E. faecalis (CL 4877); [2]): 2
– | 0.78 µg/mL | 0.78 µg/mL | > 25 µg/mL | C[C@H]1O[C@H](O[C@H]2[C@H](Oc3c4cc5cc3Oc3ccc(cc3Cl)[C@@H](O)[C@@H](NC(=O)[C@@H](N)CCC(=O)OCc3ccccc3)C(=O)N[C@@H](CC(N)=O)C(=O)N[C@H]5C(=O)N[C@H]3C(=O)N[C@H](C(=O)N[C@@H](C(=O)O)c5cc(O)cc(O)c5-c5cc3ccc5O)[C@H](O)c3ccc(c(Cl)c3)O4)O[C@H](CO)[C@@H](O)[C@@H]2O)C[C@@](C)(NCc2ccc(-c3ccc(Cl)cc3)cc2)[C@H]1O [Compound 26] | 2 | zone score, E. faecalis CL 4877 (E. faecalis (CL 4877); [2]): 2
0.39 µg/mL | 0.78 µg/mL | 0.78 µg/mL | 25 µg/mL | CC1OC(OC2C(Oc3c4cc5cc3Oc3ccc(cc3Cl)C(O)C3NC(=O)C(NC(=O)C5NC(=O)C(CC(N)=O)NC(=O)C(NC(=O)C(N)COCc5ccccc5)C(O)c5ccc(c(Cl)c5)O4)c4ccc(O)c(c4)-c4c(O)cc(O)cc4C(C(=O)O)NC3=O)OC(CO)C(O)C2O)CC(C)(NCc2ccc(-c3ccc(Cl)cc3)cc2)C1O (centres unmarked) [Compound 342] | – | –
0.25 µg/mL | 0.39 µg/mL | 0.39 µg/mL | 25 µg/mL | CCOCC(N)C(=O)NC1C(=O)NC(CC(N)=O)C(=O)NC2C(=O)NC3C(=O)NC(C(=O)NC(C(=O)O)c4cc(O)cc(O)c4-c4cc3ccc4O)C(O)c3ccc(c(Cl)c3)Oc3cc2cc(c3OC2OC(CO)C(O)C(O)C2OC2CC(C)(NCc3ccc(-c4ccc(Cl)cc4)cc3)C(O)C(C)O2)Oc2ccc(cc2Cl)C1O (centres unmarked) [Compound 524] | – | –

SMILES | MIC E. faecium ATCC 49624 (E. faecium ATCC 49624) | MIC S. aureus ATCC 29213 (S aureus ATCC 29213) | MIC S. aureus ATCC 33591 (S. Aureus ATCC 33591) | MIC E. faecium CL 4931 (E. faecium CL 4931) | zone score, S. aureus ATCC 29213 (S. aureus (ATCC 29213); [2]) | also measured
CCOCC(=O)NC1C(=O)NC(CC(N)=O)C(=O)NC2C(=O)NC3C(=O)NC(C(=O)NC(C(=O)O)c4cc(O)cc(O)c4-c4cc3ccc4O)C(O)c3ccc(c(Cl)c3)Oc3cc2cc(c3OC2OC(CO)C(O)C(O)C2OC2CC(C)(NCc3ccc(-c4ccc(Cl)cc4)cc3)C(O)C(C)O2)Oc2ccc(cc2Cl)C1O (centres unmarked) [Compound 287] | – | – | – | 25 µg/mL | – | zone score, E. faecalis CL 4877 (E. faecalis (CL 4877); [3]): 2; zone score, S. epidermidis ATCC 12228 [1, 3]: 2; zone score, S. aureus ATCC 29213 (S. aureus (ATCC 29213); [3]): 2
